{
  "source": "PubChem BioAssay (NCI)",
  "test_in_all_cases": "NCI anticancer screen, dose series, 384-well format",
  "key": {"SK-MEL-28 melanoma": {"tested_on": "SK-MEL-28 melanoma"}, "IGROV1 ovarian": {"tested_on": "IGROV1 ovarian"}, "OVCAR-8 ovarian": {"tested_on": "OVCAR-8 ovarian"}, "HL-60(TB) leukemia": {"tested_on": "HL-60(TB) leukemia"}, "SR leukemia": {"tested_on": "SR leukemia"}, "T-47D breast": {"tested_on": "T-47D breast"}, "RXF 393 renal": {"tested_on": "RXF 393 renal"}, "NCI-H460 NSCLC": {"tested_on": "NCI-H460 NSCLC"}, "HS 578T breast": {"tested_on": "HS 578T breast"}, "TK-10 renal": {"tested_on": "TK-10 renal"}, "UO-31 renal": {"tested_on": "UO-31 renal"}, "SK-OV-3 ovarian": {"tested_on": "SK-OV-3 ovarian"}, "HCT-116 colon": {"tested_on": "HCT-116 colon"}},
  "note": "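Here, GI50 denotes the concentration required for 50% inhibition of growth. At the TGI there is no net growth.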",
  "data": [
    {"smiles": "CN1C(=O)[C@@H](CC2CCCC2)N(C2CCCC2)c2nc(Nc3cc(Cl)c(O)c(Cl)c3)ncc21", "values": [
      {"measurement": "GI50", "setting": "SK-MEL-28 melanoma", "value": 4790, "unit": "nM"},
      {"measurement": "TGI", "setting": "SK-MEL-28 melanoma", "value": "> 100000", "unit": "nM"},
      {"measurement": "GI50", "setting": "IGROV1 ovarian", "value": 9940, "unit": "nM"},
      {"measurement": "TGI", "setting": "IGROV1 ovarian", "value": 39600, "unit": "nM"},
      {"measurement": "GI50", "setting": "OVCAR-8 ovarian", "value": 4990, "unit": "nM"},
      {"measurement": "TGI", "setting": "OVCAR-8 ovarian", "value": 60500, "unit": "nM"},
      {"measurement": "GI50", "setting": "HL-60(TB) leukemia", "value": 1750, "unit": "nM"},
      {"measurement": "TGI", "setting": "HL-60(TB) leukemia", "value": 3170, "unit": "nM"},
      {"measurement": "GI50", "setting": "SR leukemia", "value": 2870, "unit": "nM"},
      {"measurement": "TGI", "setting": "SR leukemia", "value": 8950, "unit": "nM"},
      {"measurement": "GI50", "setting": "T-47D breast", "value": 2380, "unit": "nM"},
      {"measurement": "TGI", "setting": "T-47D breast", "value": "> 100000", "unit": "nM"},
      {"measurement": "GI50", "setting": "RXF 393 renal", "value": 2450, "unit": "nM"},
      {"measurement": "TGI", "setting": "RXF 393 renal", "value": 7680, "unit": "nM"},
      {"measurement": "GI50", "setting": "NCI-H460 NSCLC", "value": 6220, "unit": "nM"},
      {"measurement": "TGI", "setting": "NCI-H460 NSCLC", "value": 19400, "unit": "nM"},
      {"measurement": "GI50", "setting": "HS 578T breast", "value": 3040, "unit": "nM"},
      {"measurement": "TGI", "setting": "HS 578T breast", "value": 23400, "unit": "nM"},
      {"measurement": "GI50", "setting": "TK-10 renal", "value": 3690, "unit": "nM"},
      {"measurement": "TGI", "setting": "TK-10 renal", "value": 20100, "unit": "nM"},
      {"measurement": "GI50", "setting": "UO-31 renal", "value": 4750, "unit": "nM"},
      {"measurement": "TGI", "setting": "UO-31 renal", "value": 23200, "unit": "nM"},
      {"measurement": "GI50", "setting": "SK-OV-3 ovarian", "value": 6010, "unit": "nM"},
      {"measurement": "TGI", "setting": "SK-OV-3 ovarian", "value": 45200, "unit": "nM"},
      {"measurement": "GI50", "setting": "HCT-116 colon", "value": 3900, "unit": "nM"},
      {"measurement": "TGI", "setting": "HCT-116 colon", "value": 13700, "unit": "nM"}
    ]},
    {"smiles": "Cc1c(Br)c(Br)c2c3c1nc(N1CCNCC1)n3CCC2", "values": [
      {"measurement": "GI50", "setting": "SK-MEL-28 melanoma", "value": 1590, "unit": "nM"},
      {"measurement": "TGI", "setting": "SK-MEL-28 melanoma", "value": 2950, "unit": "nM"},
      {"measurement": "GI50", "setting": "IGROV1 ovarian", "value": 1310, "unit": "nM"},
      {"measurement": "TGI", "setting": "IGROV1 ovarian", "value": 2610, "unit": "nM"},
      {"measurement": "GI50", "setting": "OVCAR-8 ovarian", "value": 1470, "unit": "nM"},
      {"measurement": "TGI", "setting": "OVCAR-8 ovarian", "value": 2850, "unit": "nM"},
      {"measurement": "GI50", "setting": "HL-60(TB) leukemia", "value": 490, "unit": "nM"},
      {"measurement": "TGI", "setting": "HL-60(TB) leukemia", "value": 998, "unit": "nM"},
      {"measurement": "GI50", "setting": "SR leukemia", "value": 1030, "unit": "nM"},
      {"measurement": "TGI", "setting": "SR leukemia", "value": 2240, "unit": "nM"},
      {"measurement": "GI50", "setting": "T-47D breast", "value": 1520, "unit": "nM"},
      {"measurement": "TGI", "setting": "T-47D breast", "value": 2860, "unit": "nM"},
      {"measurement": "GI50", "setting": "RXF 393 renal", "value": 1390, "unit": "nM"},
      {"measurement": "TGI", "setting": "RXF 393 renal", "value": 2680, "unit": "nM"},
      {"measurement": "GI50", "setting": "NCI-H460 NSCLC", "value": 1390, "unit": "nM"},
      {"measurement": "TGI", "setting": "NCI-H460 NSCLC", "value": 2730, "unit": "nM"},
      {"measurement": "GI50", "setting": "HS 578T breast", "value": 1870, "unit": "nM"},
      {"measurement": "TGI", "setting": "HS 578T breast", "value": 3280, "unit": "nM"},
      {"measurement": "GI50", "setting": "TK-10 renal", "value": 1510, "unit": "nM"},
      {"measurement": "TGI", "setting": "TK-10 renal", "value": 2880, "unit": "nM"},
      {"measurement": "GI50", "setting": "UO-31 renal", "value": 1450, "unit": "nM"},
      {"measurement": "TGI", "setting": "UO-31 renal", "value": 2780, "unit": "nM"},
      {"measurement": "GI50", "setting": "SK-OV-3 ovarian", "value": 1360, "unit": "nM"},
      {"measurement": "TGI", "setting": "SK-OV-3 ovarian", "value": 2740, "unit": "nM"},
      {"measurement": "GI50", "setting": "HCT-116 colon", "value": 1370, "unit": "nM"},
      {"measurement": "TGI", "setting": "HCT-116 colon", "value": 2700, "unit": "nM"}
    ]}
  ]
}
